The target in assay [1] is Acetylcholinesterase (Electrophorus electricus, UniProt O42275).
Description: Inhibition of electric eel AChE using acetylthiocholine iodide as substrate preincubated with enzyme for 10 mins prior to substrate challenge measured after 15 mins by Ellman's method
A further assay deals with Cholinesterase (Equus caballus, UniProt P81908).
The nature of assay [2]: Antioxidant activity assessed as superoxide anion radical scavenging activity at 100 uM by non-enzymatic phenazine methosulfate NADH-system. It is filed as functional.
The subject of assay [3] is Radical scavenging activity.
Description: Antioxidant activity assessed as DPPH radical scavenging activity after 2 hrs by absorbance analysis
Assay [4] has as its target Acetylcholinesterase (Homo sapiens, UniProt P22303). Briefly: Inhibition of AChE in human erythrocytes using acetylthiocholine iodide as substrate preincubated with enzyme for 10 mins prior to substrate challenge measured after 15 mins by Ellman's method. It is filed as cell-based. A general note: In Ellman's method for cholinesterases, released thiocholine reacts with DTNB.

SMILES strings stand for the structures.

Chain of Acetylcholinesterase (Electrophorus electricus, UniProt O42275) (O42275 whole entry): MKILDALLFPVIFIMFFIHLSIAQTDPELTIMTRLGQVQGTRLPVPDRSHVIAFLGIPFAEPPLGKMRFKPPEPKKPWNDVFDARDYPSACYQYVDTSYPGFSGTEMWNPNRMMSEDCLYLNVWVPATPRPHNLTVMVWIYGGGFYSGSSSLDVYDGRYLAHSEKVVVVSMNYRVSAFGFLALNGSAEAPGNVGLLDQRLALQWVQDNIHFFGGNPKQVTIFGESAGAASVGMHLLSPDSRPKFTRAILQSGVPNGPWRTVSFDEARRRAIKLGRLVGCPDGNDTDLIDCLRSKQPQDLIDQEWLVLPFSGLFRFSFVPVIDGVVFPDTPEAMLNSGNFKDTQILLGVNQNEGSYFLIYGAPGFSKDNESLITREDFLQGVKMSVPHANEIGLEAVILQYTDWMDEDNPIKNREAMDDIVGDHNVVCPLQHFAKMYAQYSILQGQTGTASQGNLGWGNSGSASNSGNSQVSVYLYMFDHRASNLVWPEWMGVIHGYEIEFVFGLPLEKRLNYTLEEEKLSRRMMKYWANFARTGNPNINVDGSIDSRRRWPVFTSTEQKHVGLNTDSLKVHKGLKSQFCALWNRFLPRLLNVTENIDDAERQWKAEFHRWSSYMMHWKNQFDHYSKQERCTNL
Chain of Cholinesterase (P81908 whole entry): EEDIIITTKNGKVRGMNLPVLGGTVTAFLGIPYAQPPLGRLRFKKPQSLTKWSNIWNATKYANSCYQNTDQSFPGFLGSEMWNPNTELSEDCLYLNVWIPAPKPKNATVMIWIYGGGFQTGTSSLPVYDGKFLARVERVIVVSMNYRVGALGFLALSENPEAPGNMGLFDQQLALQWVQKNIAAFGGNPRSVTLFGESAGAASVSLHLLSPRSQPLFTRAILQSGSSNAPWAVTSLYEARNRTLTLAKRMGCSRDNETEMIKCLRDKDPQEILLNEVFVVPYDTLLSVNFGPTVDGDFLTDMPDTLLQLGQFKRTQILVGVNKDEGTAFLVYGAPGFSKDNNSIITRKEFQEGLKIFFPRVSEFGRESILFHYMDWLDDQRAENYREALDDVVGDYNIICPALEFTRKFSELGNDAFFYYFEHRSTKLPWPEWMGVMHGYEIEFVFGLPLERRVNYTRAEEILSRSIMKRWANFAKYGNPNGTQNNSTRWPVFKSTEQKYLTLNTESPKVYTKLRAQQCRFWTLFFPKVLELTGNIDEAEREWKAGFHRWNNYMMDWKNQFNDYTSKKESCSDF
Chain of Acetylcholinesterase (Homo sapiens, UniProt P22303) (P22303 whole entry): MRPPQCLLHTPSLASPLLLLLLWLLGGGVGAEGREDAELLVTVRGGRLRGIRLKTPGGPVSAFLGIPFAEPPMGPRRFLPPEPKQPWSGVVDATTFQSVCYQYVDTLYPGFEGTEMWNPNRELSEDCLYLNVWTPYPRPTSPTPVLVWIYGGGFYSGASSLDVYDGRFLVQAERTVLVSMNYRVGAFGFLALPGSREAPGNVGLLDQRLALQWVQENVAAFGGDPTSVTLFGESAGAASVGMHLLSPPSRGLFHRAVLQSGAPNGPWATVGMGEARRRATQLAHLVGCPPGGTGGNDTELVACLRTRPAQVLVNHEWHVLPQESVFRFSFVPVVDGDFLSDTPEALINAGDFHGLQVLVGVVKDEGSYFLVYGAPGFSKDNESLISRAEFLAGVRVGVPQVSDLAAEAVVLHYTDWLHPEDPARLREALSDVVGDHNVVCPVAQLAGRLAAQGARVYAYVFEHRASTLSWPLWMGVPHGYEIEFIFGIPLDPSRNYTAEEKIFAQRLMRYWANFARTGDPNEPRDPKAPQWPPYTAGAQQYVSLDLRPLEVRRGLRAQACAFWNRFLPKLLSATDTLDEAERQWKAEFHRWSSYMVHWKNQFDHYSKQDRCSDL

The IC50 is the midpoint of a concentration-inhibition curve. As to `O=C(NCC1CCN(Cc2ccccc2)CC1)c1c(O)c2ccccc2n(Cc2ccccc2)c1=O`, the half-maximal inhibitory concentration (IC50) is 490 nM at Acetylcholinesterase [1] and more than 10 µM at Cholinesterase.
With `COc1cc2c(O)c(C(=O)NCC3CCN(Cc4ccccc4)CC3)c(=O)n(C)c2cc1OC`, the IC50 is 2930 nM at Acetylcholinesterase [1] and more than 10 µM against Cholinesterase.
For `Cn1c(=O)c(C(=O)NCC2CCN(Cc3ccccc3)CC2)c(O)c2ccccc21`, in that order: 370 nM and 4.26 µM.
As a reminder, the EC50 is the concentration giving half of the maximal effect. A high value points to a need for much substance. As for `COc1cc(Cn2c(=O)c(C(=O)NCC3CCN(Cc4ccccc4)CC3)c(O)c3ccccc32)cc(OC)c1O`, the Activity in assay [2] worked out at 33%. Further, the IC50 on Acetylcholinesterase [1] was 560 nM; against Cholinesterase, 0.33 µM. Moreover, the concentration for a half-maximal effect (EC50) in assay [3] is 90.5 µM.
For `COc1cc2[nH]c(=O)c(C(=O)NCC3CCN(Cc4ccccc4)CC3)c(O)c2cc1OC`, the concentration for half-maximal inhibition (IC50) at Acetylcholinesterase [4] is 230 nM; against Acetylcholinesterase [1], 110 nM; against Cholinesterase, more than 60 µM.
With `Cn1c(=O)c(C(=O)NCC2CCN(Cc3ccccc3)CC2)c(N)c2ccccc21`, the half-maximal inhibitory concentration (IC50) came out at 380 nM against Acetylcholinesterase [1] and 1.14 µM on Cholinesterase.
In the same order, the values of `O=C(NC1CCN(Cc2ccccc2)CC1)c1c(-c2ccccc2)c2ccccc2[nH]c1=O` are more than 10000 nM and more than 10 µM.
In the same order, the values of `Cc1c(C(=O)NC2CCN(Cc3ccccc3)CC2)c(=O)[nH]c2ccccc12` are 2460 nM and more than 10 µM.
Compound `COc1cc(/C=C/C(=O)CC(=O)/C=C/c2ccc(O)c(OC)c2)ccc1O` [CURCUMIN] registered an EC50 in assay [3] of 26.6 µM.
Consider `O=C(NCC1CCN(Cc2ccccc2)CC1)c1c(O)c2cc(O)c(O)cc2n(Cc2ccccc2)c1=O`, for which the values for the half-maximal inhibitory concentration (IC50) against Acetylcholinesterase [1] and on Cholinesterase were more than 10000 nM and more than 10 µM, respectively. The compound further came in with a concentration for a half-maximal effect (EC50) in assay [3] of 20.8 µM.
`O=C(NCC1CCN(Cc2ccccc2)CC1)c1c(O)c2ccccc2n(Cc2cc(O)c(O)c(O)c2)c1=O`: the 50% inhibitory concentration (IC50) on Acetylcholinesterase [1] is 3890 nM; on Cholinesterase it was more than 10 µM. The compound also returned a concentration for a half-maximal effect (EC50) in assay [3] of 107 µM.
For `O=C(NCC1CCN(Cc2ccccc2)CC1)c1c(O)c2ccccc2[nH]c1=O`, the IC50 on Acetylcholinesterase [1] was 1410 nM; against Cholinesterase, 6.02 µM.
With `O=C(NCC1CCN(Cc2ccccc2)CC1)c1c(O)c2cc(O)c(O)cc2[nH]c1=O`, the IC50 against Acetylcholinesterase [4] is 980 nM; against Acetylcholinesterase [1] it was 480 nM; against Cholinesterase it was more than 10 µM. Besides, in assay [3], the EC50 stood at 12.2 µM.
Consider `COc1cc2c(O)c(C(=O)NCC3CCN(Cc4ccccc4)CC3)c(=O)n(Cc3ccccc3)c2cc1OC`, for which the IC50 was 270 nM against Acetylcholinesterase [1] and more than 60 µM against Cholinesterase.
For `O=C(NC1CCN(Cc2ccccc2)CC1)c1c(O)c2ccccc2[nH]c1=O`, in that order: 2270 nM and more than 10 µM.
In turn, `O=c1c(O)c(-c2ccc(O)c(O)c2)oc2cc(O)cc(O)c12` [QUERCETIN] gave an EC50 in assay [3] of 10.3 µM.
In the case of `Cc1c(C(=O)NCC2CCN(Cc3ccccc3)CC2)c(=O)[nH]c2ccccc12`, the IC50 is 470 nM on Acetylcholinesterase [1] and more than 10 µM against Cholinesterase.
In the same order, the values of `Cn1c(=O)c(C(=O)NC2CCN(Cc3ccccc3)CC2)c(O)c2ccccc21` are 1520 nM and more than 10 µM.
For `Cn1c(=O)c(C(=O)NCC2CCN(Cc3ccccc3)CC2)c(O)c2cc(O)c(O)cc21`, the Activity in assay [2] worked out at 40%. The concentration for half-maximal inhibition (IC50) against Acetylcholinesterase [1] is 2020 nM; against Cholinesterase, more than 10 µM. In addition, the concentration for a half-maximal effect (EC50) in assay [3] turned out to be 21.7 µM.
As to `O=C(NC1CCN(Cc2ccccc2)CC1)c1c(O)c2ccccc2n(Cc2ccccc2)c1=O`, the half-inhibitory concentration (IC50) is 390 nM on Acetylcholinesterase [1] and more than 10 µM against Cholinesterase.

The values above are taken from ChEMBL document CHEMBL3232950, “Quinolone-benzylpiperidine derivatives as novel acetylcholinesterase inhibitor and antioxidant hybrids for Alzheimer disease” (Bioorg Med Chem, 2014).
